Test results taken from patent publication US5393777A, “Deferration using anguibactin siderophore” (State of Oregon Acting by and through the State Board of …, priority 1990, dated 1995).
Entries after “also recorded” stand apart in the source; their conditions may differ. Like-named read-outs stand apart in the source and are kept apart here.

Assays:
[1] = theoretical; cited from earlier work
transferrin [2] = settings: deferoxamine; cited from earlier work
ferritin = settings: cited from earlier work
hemosiderin = settings: cited from earlier work
cytochromes = settings: cited from earlier work
hemoglobin = settings: cited from earlier work
[3] = cited from earlier work
[4] = cited from earlier work; remark: listed apart in the source
[5] = deferoxamine; cited from earlier work
[6] = in vivo; cited from earlier work
[7] = human, in vivo; cited from earlier work
Yersinia enterocolitica = settings: in some cases; cited from earlier work
[8] = deferoxamine; cited from earlier work; remark: listed apart in the source
[9] = as known in the art; cited from earlier work
[10] = ferric iron (Fe3+) binding / affinity / formation constant
Excerpt: Each molecule of anguibactin chelates one ferric (Fe^3+ or Fe(III)) ion. Anguibactin also binds Ga(III).

calcium (Ca2+) affinity = format: binding; settings: anguibactin
ferrous (Fe2+) affinity = format: binding
Ga(III) binding = settings: anguibactin
Experimental: The structure of anguibactin was determined as outlined in Jalal et al., J. Am. Chem. Soc. 111:292 (1989), and shown schematically in FIG. 2. Anguibactin has a molecular weight of 348 g/mol, which is about half the molecular weight of deferoxamine (657 g/mol). Anguibactin can be regarded as a form of catechol rather than a monophenol. It has a unique structure which bears some resemblance to pyochelin. See Llinas et al., Biochemistry 12:3836 (1973). Anguibactin has been identified as ω-N-hydroxy-ω-[[2'-(2'',3''-dihydroxyphenyl)thiazolin-4'-yl]-carboxy]histamine by crystal X-ray diffraction studies of its anhydro derivative, proton and ^13 C nuclear magnetic resonance spectroscopy of its deferri and Ga(III) complex, fast-atom bombardment (FAB) mass spectrometry, and chemical degradation.

[11] = removal of ferric ion from ferric hydroxide; format: binding; settings: aqueous, pH between 7 and 8
[12] = competitive binding assay, removal of Fe3+ from aerobactin; settings: competitive binding assays
transferrin [13] = test: removal of Fe3+ from transferrin; settings: anguibactin; competitive binding assays
[14] = tested on: iron-binding proteins in the fish host; test: removal of iron from iron-binding proteins in the fish host; settings: in vivo
[15] = removal of ferric iron from aqueous solutions
[16] = tested on: human diploid fibroblast cells; test: inhibition of 59Fe uptake by normal human diploid fibroblast cells (FIG. 3); format: cell-based; settings: 59Fe-containing cell-growth medium
Experimental: An experiment was conducted to characterize the chelation properties of anguibactin by examining its effect on iron uptake by mammalian cells in culture.
Normal human diploid fibroblast cells were mixed with ^59 Fe-containingcell-growth medium. Samples of the dosed cells were then incubated for increasing lengths of time. After each time period, the corresponding samples were rinsed to remove any free radioiron. The rinsed cells were treated with trypsin and the lysates precipitated with trichloroacetic acid. Radioactive counting of the precipitated lysates was performed using a Beckman counter. Addition of anguibactin and subsequent assay for radioiron in otherwise identical parallel samples yielded a measure of the capacity of the siderophore present in the cell-growth medium to interrupt the uptake of radioiron by the cultured cells.

rat heart cells = test: inhibition of iron uptake by rat heart cells; format: cell-based; settings: non-immortalized cells, data not shown
[17] = toxicity on injection into fish; format: in vivo; settings: injection of 400 μl anguibactin
Excerpt: (§1) Preliminary studies indicate that anguibactin toxicity is very low.

[18] = toxicity on injection into rabbits; format: in vivo, rabbit; settings: injection of 400 μl
Excerpt: as §1

[19] = stability to acid hydrolysis; format: physicochemical
[20] = excretion of radioiron (59Fe) in urine and feces; format: in vivo, rats; settings: about 10 mg incubated with 59FeCl3, subcutaneous, urine and feces over a week
Experimental: To determine the ability to excrete chelated iron, a procedure similar to that generally used to evaluate iron chelators is employed. Trace amounts of ^59 FeCl3 are incubated in vitro with about 10 mg anguibactin and subcutaneously injected into normal subjects such as rats. Cumulative excretion of radioiron is measured during the subsequent week in urine and feces. Weak iron chelators are not able enhance ^59 Fe excretion relative to a control injected with ^59 FeCl3 only. […] Evaluation of the distribution of radioiron in urine and stool provides an indication of whether the siderophore-bound iron is removed from plasma by kidneys (urine) or by the liver followed by excretion to the bile (stool).

Vibrio anguillarum = test: experimental infection of salmonid fishes, iron supply by siderophore for growth of avirulent strain; format: in vivo; settings: fish infected with wild-type V. anguillarum
Excerpt: A mutant strain of Vibrio anguillarum termed 775:Tn1-5 was produced which contained the pJM1-derivative plasmid pJHC-91 in which a transposon element Tn1 was inserted into genetic unit I. This mutant strain can grow in vitro in iron-limited media only if the supernatant from strains containing the wild-type pJM1 plasmid, and thus plenty of anguibactin, is supplied. Therefore, strains harboring the pJHC-91 plasmid must be able to transport and incorporate iron from anguibactin but are not able to produce this anguibactin itself. Strains containing the pJHC-91 plasmid are able to synthesize the pOM2 outer membrane protein.

toxicity, general = settings: preliminary studies

CC(=O)N(O)CCCCCNC(=O)CCC(=O)N(O)CCCCCNC(=O)CCC(=O)N(O)CCCCCN [deferoxamine]
capacity of binding ferric iron [1]: about 8.5 parts by weight
removal of iron from transferrin (transferrin [2]): not readily from transferrin
removal of iron from ferritin (ferritin): wrests iron from ferritin
removal of iron from hemosiderin (hemosiderin): wrests iron from ferritin and hemosiderin
removal of iron from cytochromes (cytochromes): substantially not at all from cytochromes
removal of iron from hemoglobin (hemoglobin): substantially not at all from cytochromes and hemoglobin
Intravenous LD50, mice [3]: 287 mg/kg
Intravenous LD50, rats [4]: 329 mg/kg
acid hydrolysis [5]: prone to acid hydrolysis
absorption after oral administration [6]: poorly absorbed after oral administration
toxic reactions [7]: toxic and can cause a number of reactions, including allergic reactions: pruritis, wheals, rash, and anaphylaxis; and dysuria, gastrointestinal symptoms, diarrhea, fever, leg cramps, hypotension, and tachycardia
effect on susceptibility of iron-overload patients to Yersinia enterocolitica infections (Yersinia enterocolitica): enhanced this susceptibility, resulting in generalized infections
excretion of radioiron [8]: enhance excretion of radioiron

O=C(O)CN(CCN(CC(=O)O)CC(=O)O)CC(=O)O [EDTA]
toxicity of calcium chelators [9]: relatively toxic

O=C(C1CSC(c2cccc(O)c2O)=N1)N(O)CCc1c[nH]cn1 (centres unmarked) [anguibactin, ω-N-hydroxy-ω-[[2'-(2'',3''-dihydroxyphenyl)thiazolin-4'-yl]-carboxy]histamine]
affinity for ferric ions [10]: extremely high
dependence of Fe3+ binding on pH [10]: dependent on pH
ferric (Fe3+) ions chelated per molecule [10]: one
iron chelating power compared with deferoxamine ([10]; from competitive binding data): more powerful iron chelator than the widely used deferoxamine
Fe3+ binding in mildly alkaline conditions ([10]; mildly alkaline conditions): excellent binding can be achieved
affinity for Ca2+ ions (calcium (Ca2+) affinity): only a very weak affinity
affinity for ferrous (Fe2+) ions (ferrous (Fe2+) affinity): only a very weak affinity; also recorded: little affinity
binding of Ga(III) (Ga(III) binding): binds Ga(III)
binding of metals other than iron known to be essential for bacterial metabolism (binding of other metals): does not bind any metal other than iron known to be essential for bacterial metabolism
removal of ferric ion from ferric hydroxide [11]: remove ferric ion from ferric hydroxide
removal of Fe3+ from other siderophores such as aerobactin [12]: able to remove Fe^3+ from other siderophores such as aerobactin
removal of Fe3+ from transferrin (transferrin [13]): able to remove Fe^3+
removal of iron from transferrin and other iron-binding proteins in the fish host [14]: very efficient in removing iron from aqueous solution as well as from transferrin and from other iron-binding proteins in the fish host
removal of iron from aqueous solution [15]: capable of removing ferric iron from aqueous solutions, including cell-culture medium; also recorded: very efficient in removing iron from aqueous solution
inhibition of iron uptake by human fibroblast cells [16]: inhibits uptake, from a liquid medium, of iron by cultured human diploid fibroblast cells; also recorded: interrupts the flow of iron into human cells
inhibition of iron uptake by human fibroblast cells ([16]; listed as Anguibactin): inhibits iron uptake by living cells
inhibition of iron uptake by rat heart cells (rat heart cells): substantially the same results
inhibition of iron uptake by rat heart cells (rat heart cells; listed as Anguibactin): inhibits iron uptake by living cells
adverse effect, fish [17]: no discernable adverse effect
adverse effect, rabbits [18]: no discernable adverse effect
cleavage by hydrochloric acid ([19]; 6N hydrochloric acid): cleave anguibactin to 2,3-dihydroxybenzoic acid, dehydrocystine, and histamine
acid hydrolysis below pH 3 ([19]; environment more acidic than pH 3): undergoes acid hydrolysis to at least a partial degree
pH down to which the molecule remains intact ([19]; pH): ≥ 3
excretion of radioiron [20]: enhance excretion of radioiron
level of siderophore in blood and kidneys of infected fish (Vibrio anguillarum): sufficient to provide iron for considerable growth of the avirulent strain
solubility in methanol (solubility; methanol): freely soluble in water and methanol
solubility in water (solubility): highly soluble in water
solubility in water (solubility; listed as Anguibactin): freely soluble in water
toxicity (toxicity, general): very low
toxicity (toxicity, general; listed as Anguibactin): very low toxicity
